For one test, the system named is S. typhimurium. The experiment in a line: bactericidal activity: percent bacterial survival after treatment, suspension in buffer. Type of test: cell-based, Salmonella typhimurium. As to the method:
(§1) All tests in the following examples were performed at 37° C. The efficacy of the enhanced broad range bactericides was determined by assaying bactericidal activity as measured by the percent bacterial survival after treatment with the bactericide. Generally, after incubation of a 10^7 cell per ml suspension of target species with the novel bactericide for specified lengths of time, bacteria were collected by centrifugation for 2 minutes. The bacterial pellet was washed free of the bactericide with a rescue buffer, termed herein Phage buffer (50 mM Tris-HCl buffer pH 7.8, 1 mM MgSO4, 4 mM CaCl2, 0.1M Nacl, and 0.1% gelatin), resuspended and serially diluted into Phage buffer, and 100 μl of the suspended bacteria were spread on nutrient agar plates. Surviving bacteria were determined by scoring colony forming units (CFU) after incubation for 24-48 hours at 37° C.
The control (Test #1) is identical to the control of Example 1 (Table 1).

For a further test, the system named is E. coli. The description is as above. The class given is cell-based, Escherichia coli. To be noted: for Percentage E. coli Survival at 2 hours: 20 mM Tris pH 8.0, 37° C. Here is the method:
as §1
The effects of the bactericide were measured as a function of percentage bacteria survival after 2 hours.
Incubations were performed in 20 mM Tris-HCl, […] at 37° C.

The next test concerns K. pneumoniae. The test is described as above. Type of test: cell-based, Klebsiella pneumoniae. To be noted: 20 mM Tris pH 8.0, 37° C. As to the method: as §1
The effect was measured as a function of percentage bacterial survival after 2 hours.

Test [1] deals with S. typhimurium on chicken muscle. The test is described as follows: bactericidal activity on inoculated chicken muscle, survival of unadhered cells. The class given is cell-based, Salmonella typhimurium. Here is the method: (§2) All tests in the following examples were performed at 37° C. The efficacy of the enhanced broad range bactericides was determined by assaying bactericidal activity as measured by the percent bacterial survival after treatment with the bactericide. Generally, after incubation of a 10^7 cell per ml suspension of target species with the novel bactericide for specified lengths of time, bacteria were collected by centrifugation for 2 minutes. The bacterial pellet was washed free of the bactericide with a rescue buffer, termed herein Phage buffer (50 mM Tris-HCl buffer pH 7.8, 1 mM MgSO4, 4 mM CaCl2, 0.1M Nacl, and 0.1% gelatin), resuspended and serially diluted into Phage buffer, and 100 μl of the suspended bacteria were spread on nutrient agar plates. Surviving bacteria were determined by scoring colony forming units (CFU) after incubation for 24-48 hours at 37° C. An effective bactericide according to this invention is one which allows less than 0.1% of the initial viable count of the bacteria to survive.
Incubations were performed in either 50 mM sodium acetate, pH 5.0, or 20 mM Tris, pH 8.0 at 37° C.
Cubes of chicken muscle were cleansed with sodium hypochlorite and povidone iodine prior to use. To inoculate the tissue, the cubes of chicken muscle were dipped into a 10^8 cells/ml suspension of S. typhimurium in 20 mM Tris HCl, pH 8.0. Excess moisture was removed from dipped cubes by tapping. The chicken samples were placed into sufficient buffer containing the nisin composition to cover the tissue and incubated for 2 hours at 37° C. after which the tissue was removed to sufficient Phage buffer to cover the tissue. The bacteria remaining in the test solution were collected by centrifugation, washed with Phage buffer, and combined with bacteria washed from the tissue by Phage buffer. The combined samples (termed "unadhered" cells) were serially diluted and 100 μl aliquots were plated for determination of surviving bacteria.
(§3) Cubes of chicken muscle were cleansed with sodium hypochlorite and povidone iodine prior to use. To inoculate the tissue, the cubes of chicken muscle were dipped into a 10^8 cells/ml suspension of S. typhimurium in 20 mM Tris HCl, pH 8.0. Excess moisture was removed from dipped cubes by tapping. The tissue was placed into sufficient buffer containing the nisin compositions to cover the tissue, and incubated for 2 hours at 37° C. after which the tissue was removed to sufficient Phage buffer to cover the tissue. The bacteria remaining in the test solution were collected by centrifugation, washed with Phage buffer, and combined with bacteria washed from the tissue by Phage buffer. The combined samples (termed "unadhered" cells) were serially diluted and 100 μl aliquots were plated for determination of surviving bacteria.
as §3, with “cleaned” for “cleansed”, “50” for “20”, “sodium acetate buffer,” for “Tris HCl,”, “5.0.” for “8.0.”, “containing” for “containing the”

For the next test, the system named is Staphylococcus aureus. The experiment in a line: bactericidal activity: percent bacterial survival, influence of pH and EDTA. Type of test: cell-based. Here is the method: as §2
Incubations were performed in 50 mM sodium acetate buffer, pH 5.0 or 20 m
TrisHCl buffer, pH 8.0 at 37° C.

The subject of test [2] is Streptococcus mutans. The test is described as follows: bactericidal activity and kinetics: percent bacterial survival in Tris buffer. To be noted: for % Survival: 1.0 mM EDTA, nisin 0, 20 mM Tris-HCl pH 7.3. Type of test: cell-based.
Protocol: Incubations were performed in 20 mM Tris-HCl, pH 8.0 at 37° C.
The suspensions were incubated for various times ranging from 0.5 to 60 minutes with the bactericides. The bactericidal efficacy of the bactericides was estimated by determining the percent survival of bacteria.
Incubations were performed in 20 mM Tris-HCl, pH 7.3 at 37° C.
Test [3] has as its system Listeria monocytogenes. The test is described as follows: bactericidal activity: percent bacterial survival in Tris buffer. To be noted: 20 mM Tris-HCl pH 8.0. The class given is cell-based. Here is the method: as §2
(§4) Incubations were performed in 20 mM Tris-HCl, pH at 8.0 at 37° C.

For a further test, the system named is Coryneform bacteria. The test is described as above. The class given is cell-based, mixed population of axillary Coryneform bacteria. The conditions noted are these: 20 mM Tris-HCl pH 8.0. As to the method:
as §1, §4

The test system of another test is Streptococcus agalactiae. The experiment in a line: bactericidal activity in milk. Type of test: cell-based. As to the method:
as §2
However, the combination of the two agents, 0.1% monolaurin and nisin 0.2 μg/ml, is extremely potent towards S. agalactiae. […] Thus, when the application of nisin is limited by its available activity, a bactericide comprising nisin with a surfactant can be expected to be more useful.
(§5) Incubations were in milk at 37° C.

In test [4] the test system is Listeria monocytogenes. The experiment in a line: bactericidal activity in milk. Type of test: cell-based. As to the method: as §2
An example of where the application of nisin is limited by its available activity is illustrated by the data in Table 15B.
as §5

In test [5] the test system is Streptococcus mutans. The experiment in a line: rapid bactericidal activity in the presence of divalent cation, 10% Fetal Calf Serum. The conditions noted are these: Nisin 3, no EDTA, CaCl3 0 mM. Type of test: cell-based.
Protocol: Incubations were performed in 10% Fetal Calf Serum at 37° C.

Where no end group is shown, it is not given here.

`O=C([O-])CN(CCN(CC(=O)[O-])CC(=O)O)CC(=O)O.[Na+].[Na+]` [EDTA]: the “% Survival at 2 hours” value was 63% in the test with S. typhimurium (EDTA 1.0 mM, BSA 1.0%, nisin 0, 20 mM Tris pH 8.0); 8.7% with S. typhimurium (EDTA 2.0 mM, nisin 0, 20 mM Tris pH 8.0, 37° C); 14% in the test on S. typhimurium (EDTA 10 mM, nisin 0, 20 mM Tris pH 8.0, 37° C); 3.5% in the test on S. typhimurium (EDTA 50 mM, nisin 0, 50 mM sodium acetate pH 5.0, 37° C); 45% in the test on S. typhimurium (EDTA 100 mM, nisin 0, 20 mM Tris pH 8.0, 37° C); 22% in the test with K. pneumoniae (EDTA 20 mM, nisin 0). Further, the “% Survival at 2 hours” value in test [1] (EDTA 1.0 mM, BSA 1.0%, nisin 0, pH 8.0) is 27%. Besides, in the test on S. typhimurium (EDTA 20 mM, nisin 0, 20 mM Tris pH 8.0, 37° C), the “Percentage S. typhimurium Survival at 3 hours” value is on record as 2.5%. Also, the “% survival at 1 min.” value in the test with E. coli (EDTA 1.0 mM, nisin 0, 20 mM Tris-HCl pH 7.0) was 100%. Moreover, the “% Survival at 2 hours (unadhered cells)” value came out at 5.2% in [1] (EDTA 10 mM, nisin 0, 20 mM Tris pH 8.0) and 6.4% in [1] (EDTA 10 mM, nisin 0, 50 mM sodium acetate pH 5.0 (Table 7)). Further, the “% Survival 2 hr” value in the test with Staphylococcus aureus (EDTA 0.3 mM, nisin 0, pH 8.0) was 100%; with Staphylococcus aureus (EDTA 1.0 mM, nisin 0, pH 8.0) it was 81%; in the test with Staphylococcus aureus (EDTA 3.0 mM, nisin 0, pH 5.0) it was 100%; in the test on Staphylococcus aureus (EDTA 3.0 mM, nisin 0, pH 8.0), 100%; in the test with Staphylococcus aureus (EDTA 10 mM, nisin 0, pH 8.0) it was 100%; with Staphylococcus aureus (EDTA 30 mM, nisin 0, pH 8.0), 100%. The “% Survival 2 hr” value is reported as 4.6% with Coryneform bacteria (EDTA 0.3 mM, nisin 0); 36% with Coryneform bacteria (EDTA 1.0 mM (last column, after 3.0), nisin 0); 3.6% in the test on Coryneform bacteria (EDTA 1.0 mM, nisin 0); 8% in the test with Coryneform bacteria (EDTA 3.0 mM, nisin 0). Besides, the “% Survival” value with Streptococcus mutans [2] (incubation 3 minutes) and in the test with Streptococcus mutans [2] (incubation 60 minutes) was 100% each time. Also, the “% Survival after 2 hr” value with Listeria monocytogenes [3] (EDTA 1.0 mM, nisin 0) is on record as 84%.
Take `CCCCCCCCCCCC(=O)OCC(O)CO` (stereo not drawn) [Monolaurin, monolaurin]: the “% survival at 2 h” value in the test on Streptococcus agalactiae (Monolaurin 0.01%, nisin 0, 37° C) turned out to be 100%; in the test with Streptococcus agalactiae (Monolaurin 0.1%, nisin 0, 37° C) it was 4.5%.
As to Triton X-100, the “Percentage E. coli Survival at 2 hours” value in the test on E. coli (Triton X-100 1.0%, nisin 0, EDTA 0) was determined as 100%. Further, in the test on E. coli (Triton X-100 1.0%, tests #3 and #4 of Table 4), the “bactericidal activity towards E. coli” value was “no significant bactericidal activity”.
As to monooleate, the “% Survival 2 hr” value in the test with Listeria monocytogenes [4] (Monooleate 0.1%, nisin 0, 37° C) is reported as 67%; with Listeria monocytogenes [4] (Monooleate 1.0%, nisin 0, 37° C), 63%. Moreover, in the test with Listeria monocytogenes [4] (monooleate by itself), the “bactericidal activity towards L. monocytogenes” value was “no bactericidal activity”.
As for “nisin (ITSISLCTPGCKTGALMGCNMKTATCHCSIHVSK; cysteine pairing not given here; also: lantibiotic, modifications not placed; UniProt P13068 24-57, looked up) [polypeptide bacteriocin with antimicrobial properties produced by strains of Streptococcus lactis]”, the “% Survival at 2 hours” value in the test on S. typhimurium (nisin 10 μg/ml, EDTA 0, BSA 0, Tris buffer (Table 8)) is 51.3%; in the test on S. typhimurium (nisin 100 μg/ml, EDTA 0, BSA 0, Tris buffer (Table 8)), 1.6%; in the test with S. typhimurium (nisin 100 μg/ml, EDTA 0, 20 mM Tris pH 8.0, 37° C (Table 6)) it was 4%; with S. typhimurium (nisin 100 μg/ml, EDTA 0, 50 mM sodium acetate pH 5.0, 37° C), 0.6%; in the test on K. pneumoniae (nisin 100 μg/ml, EDTA 0) it was 50%; with K. pneumoniae (nisin 300 μg/ml, EDTA 0), 38%. The “Percentage S. typhimurium Survival at 3 hours” value in the test with S. typhimurium (nisin 50 μg/ml, EDTA 0, 20 mM Tris pH 8.0, 37° C) was found to be 7.0%; in the test with S. typhimurium (nisin 100 μg/ml, EDTA 0, 20 mM Tris pH 8.0, 37° C), 1.6%. Besides, the “Percentage E. coli Survival at 2 hours” value was 27% with E. coli (nisin 30 μg/ml, EDTA 0, Triton X-100 0); 25% with E. coli (nisin 100 μg/ml, EDTA 0, Triton X-100 0); 8.5% in the test on E. coli (nisin 300 μg/ml, EDTA 0, Triton X-100 0). Further, the “% Survival at 2 hours (unadhered cells)” value in test [1] (nisin 300 μg/ml, EDTA 0, 1% Bovine serum albumin, 20 mM Tris pH 8.0) came out at 0.02%; in test [1] (nisin 300 μg/ml, EDTA 0, 20 mM Tris pH 8.0), 7.5%; in test [1] (nisin 300 μg/ml, EDTA 0, 50 mM sodium acetate pH 5.0) it was 0.1%. The “% Survival 2 hr” value in the test on Staphylococcus aureus (nisin 3.0 μg/ml, EDTA 0, pH 5.0) came to 0.6%; with Staphylococcus aureus (nisin 3.0 μg/ml, EDTA 0, pH 8.0), 7.4%; in the test with Coryneform bacteria (nisin 3 μg/ml, EDTA 0), 0.22%; in the test on Listeria monocytogenes [4] (nisin 100 μg/ml, Monooleate 0, 37° C) it was 0.56%. Besides, the “% Survival after 2 hr” value in the test on Streptococcus mutans [2] (nisin 0.1 μg/ml, EDTA 0, 20 mM Tris-HCl pH 8.0) is listed as 4.3%; in the test with Listeria monocytogenes [3] (nisin 3.0 μ/ml, EDTA 0) it was 0.71%. Moreover, the “% survival at 2 h” value with Streptococcus agalactiae (nisin 0.02 μg/ml, Monolaurin 0, 37° C) worked out at 100%; in the test with Streptococcus agalactiae (nisin 0.2 μg/ml, Monolaurin 0, 37° C), 2.2%. Further, the “% survival at 1 min.” value in the test with Streptococcus mutans [5] was 2.9%.

Source of the values: patent US5217950A, “Nisin compositions for use as enhanced, broad range bactericides” (Applied Microbiology, Inc., priority 1992, dated 1993).
